Laboratory results: doi:10.1101/2025.09.04.674342, “Tandem association of CLOCK:BMAL1 complexes on DNA enables recruitment of CBP/p300 through multivalent interactions” (bioRxiv, 2025)
No end group written: not given here.

Tests used:
CBP KIX [1] = biological target: T1, CBP KIX (Mus musculus, UniProt P45481); assay: 15N-1H HSQC NMR titration of 15N CBP KIX with BMAL1 TAD peptides; assay type: binding; conditions: for binding of locked switch peptides to CBP KIX by pattern of CSPs: Fig. 3d
T1 construct: mouse CBP (UniProt P45481) KIX (residues 586–672); made in house; host or cells: Rosetta (DE3) E. coli
Protocol: (§1) NMR experiments were conducted on a Varian INOVA 600-MHz spectrometer equipped with ^1H, ^13C, ^15N triple resonance, Z-axis pulsed field gradient cryoprobe. All NMR data were collected at 25°C. NMR data were processed using NMRPipe/NMRDraw[79]. ^15N-^1H HSQC spectra CBP KIX were performed in 330 μL volume in a Shigemi tube with 100 μM ^15N CBP KIX in NMR buffer (10 mM MES pH 6.5, 50 mM NaCl) and 10% (v/v) D2O in the presence of stepwise additions of concentrated stocks of BMAL1 TAD or truncated peptides. ^15N-^1H HSQC spectra of BMAL1 TAD WT or L606A/L607A were performed in 330 μL volume in a Shigemi tube with 100 μM ^15N BMAL1 TAD in NMR buffer (10 mM MES pH 6.5, 50 mM NaCl) and 10% (v/v) D2O in the presence of stepwise additions of CBP KIX (WT or 3mut), TAZ1, or TAZ2, followed by concentration in an Amicon Ultra centrifugal filter with a 3 kDa MWCO (Merck Millipore). Chemical shift assignments of BMAL1 TAD (entry 25280) and CBP KIX (entry 6750) were obtained from the Biological Magnetic Resonance Data Bank (BMRB); CBP KIX assignments at pH 5.5 were transferred to the spectrum at pH 6.5 via a 3-step pH titration. Titration data for protein interactions were analyzed with NMRViewJ (One Moon Scientific) using chemical shift perturbations defined by the equation ΔδTOT = [(Δδ^1H)^2 + (χ(Δδ^15N)^2]^½ and normalized with the scaling factor χ = 0.5[80].

WT CBP KIX = assay: Isothermal titration calorimetry, CBP KIX WT with BMAL1 TAD; assay type: binding, mouse
Protocol: (§2) ITC measurements were obtained as previously described. Briefly, proteins were extensively dialyzed at 4°C in 10 mM MES pH 6.5, 50 mM NaCl using a 2 kDa molecular weight cutoff filter dialysis tubing (Spectrum Labs) prior to collecting ITC data. ITC was performed on a MicroCal VP-ITC calorimeter at 25°C with a stir speed of 177 rpm, reference power of 10 μCal/sec and 10 μL injection sizes. Protein ratios for the cell and syringe for the ITC assays (3 independent runs for each complex) were 220–230 μM CBP KIX WT or 3mut titrated into 20–25 μM BMAL1 TAD WT or L606A/L607A as indicated (stoichiometry (n) = 0.8–1.1). All data were best fit by a one-site binding model using Origin software.

[2] = tested on: 3mut CBP KIX (Y650A, A654Q, Y658A); assay: Isothermal titration calorimetry, 3mut CBP KIX with BMAL1 TAD; assay type: binding, mouse; conditions: same conditions as WT KIX; Fig. 4b
Protocol: as §2

[3] = tested on: 3mut CBP KIX (Y650A, A654Q, Y658A); assay: 15N-1H HSQC NMR titration of 15N BMAL1 TAD with 3mut CBP KIX; assay type: binding, mouse; conditions: versus WT KIX
Protocol: as §1

CREB = tested on: CREB; parameters: method as in PMID 19810079, PMID 27211267; conditions: cited from earlier work
[4] = cited from earlier work
[5] = tested on: CREB-induced Per1-luc activation; assay: Per1-luc reporter in HEK293T cells after forskolin stimulation; assay type: cell-based, human; conditions: compounds 16 hours, 10 μM forskolin 2 hours before harvest, n = 3, Fig. 5g
Protocol: HEK293T cells were purchased from ATCC (cat. #CRL-3216) were cultured in 10% DMEM (i.e. 10% (v/v) FBS) and 1X penicillin-streptomycin (Thermo Fisher) at 37°C in an incubator humidified with 5% CO2. Forskolin (CAS 66575-29-9, cat. #F3917, Sigma Aldrich), KG-501/naphthol-AS-E-phosphate (CAS 18228-17-6, cat. #70485, Sigma Aldrich), XX-650–23 (CAS 117739-40-9, cat. #AOB31725, Aobious), and 666–15 (CAS 1433286-70-4, cat. #AMBH97F07B56, Sigma Aldrich) were stored as recommended by the manufacturer and assessed by 1D NMR before use.
For Per1-luc reporter assays with inhibitors, 48-well plates with HEK293T cells were transfected with LT-1 (Mirus) and the following plasmids in duplicate: 5 ng pGL3 Per1-luciferase[8] and 395 ng empty pcDNA4 vector; for CLOCK:BMAL1 activity, 5 ng pGL3 Per1-luciferase, 100 ng pSG5 Clock, 100 ng pSG5 Bmal1, and 195 ng empty pcDNA4 vector. Cells were treated with compounds as indicated or 1% DMSO 24 hours after transfection for 16 hours prior to harvesting. For forskolin treatment, 10 μM forskolin was added 2 hours prior to harvesting. Cells were lysed in Passive Lysis Buffer ([…]) according to the protocol and luciferase activity was measured with Bright-Glo reagent ([…]) on an EnVision plate reader (Perkin Elmer). Each reporter assay was repeated at least three times.

CBP KIX [6] = biological target: T1, CBP KIX; assay: Fluorescence polarization competition assay, CBP KIX:TAD WT titrated with KG-501; assay type: binding
Protocol: TAMRA fluorescent probe covalently attached to the N-terminus; the C-terminus of the Δswitch peptide was amidated, while the others were left as a free carboxyl group. Equilibrium binding assays (Fig. 5b) with CBP KIX, TAZ1, and TAZ2 and competition assay with CBP KIX:TAD WT titrated with KG-501 (Fig. 5i) were performed in 10 mM MES pH 6.5, 50 mM NaCl and 0.05% (v/v) Tween-20. Concentrated stocks of BMAL1 TAD probes were stored between 15–200 μM at −70°C and diluted in assay buffer to 50 nM alone (binding assays) or to 10 nM bound to 2 μM CBP KIX (competition assay) and in the presence of increasing concentrations of KG-501. Plates were incubated at room temperature for 10–20 minutes prior to analysis. Binding was monitored by changes in fluorescence polarization with an EnVision 2103 multilabel plate reader (Perkin Elmer) with excitation at 531 nm and emission at 595 nm. The Hill coefficient and equilibrium binding dissociation constant (KD) were calculated by fitting the dose-dependent change in millipolarization (Δmp) to a one-site specific binding model (binding assays) or an [inhibitor] vs. response (three parameters) model (competition assay) in Prism (GraphPad). Data shown for equilibrium binding assays are from a representative experiment (n=4 replicates) of three independent assays (Fig. 5b). […]

CBP TAZ1 = biological target: T2, CBP TAZ1 (Mus musculus, UniProt P45481); assay: 15N-1H HSQC NMR titration of 15N BMAL1 TAD L606A/L607A with CBP TAZ1; assay type: binding; conditions: 100 μM 15N TAD L606A/L607A; Fig. 6e,f
T2 construct: Mouse CBP (UniProt P45481) TAZ1 (residues 340–439); made in house; host or cells: Rosetta (DE3) E. coli
Protocol: as §1

CBP TAZ2 = biological target: T3, CBP TAZ2 (Mus musculus, UniProt P45481, C1776A/C1784A/C1827A/C1828A); assay: 15N-1H HSQC NMR titration of 15N BMAL1 TAD L606A/L607A with CBP TAZ2; assay type: binding; conditions: 100 μM 15N TAD L606A/L607A; Fig. 6g,h
T3 construct: Mouse CBP (UniProt P45481) TAZ2 (residues 1764–1855); MBP; made in house; host or cells: E. coli (BL21)
T3 sequence (P45481 1764-1855 C1776A/C1784A/C1827A/C1828A): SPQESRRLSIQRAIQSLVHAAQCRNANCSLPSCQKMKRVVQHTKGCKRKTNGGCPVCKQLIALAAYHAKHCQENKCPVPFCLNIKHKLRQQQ
Protocol: as §1

CBP KIX [7] = biological target: T1, CBP KIX; assay: 15N-1H HSQC NMR titration of 15N BMAL1 TAD L606A/L607A with CBP KIX; assay type: binding; conditions: versus WT TAD with WT KIX
Protocol: as §1

T1 sequence (P45481 586-672): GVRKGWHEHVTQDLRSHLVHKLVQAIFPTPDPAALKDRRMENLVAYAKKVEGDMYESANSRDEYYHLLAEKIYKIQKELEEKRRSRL
T2 sequence (P45481 340-439): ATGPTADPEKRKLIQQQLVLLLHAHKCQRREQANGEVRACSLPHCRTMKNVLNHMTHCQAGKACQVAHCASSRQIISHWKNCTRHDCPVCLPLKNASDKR

FSDLPWAL [P625A switch, trans-locked switch peptide with P625A substitution]
binding of locked switch peptides to CBP KIX by pattern of CSPs (CBP KIX [1]; 100 μM 15N CBP KIX): can bind at the MLL1 site

FSDLPWPL-OH [switch]
KD for the CBP KIX domain estimated by fitting concentration-dependent CSPs (CBP KIX [1]; 100 μM 15N CBP KIX, 10 mM MES pH 6.5, 50 mM NaCl, 25°C, Fig. 3b): hundreds of micromolar
Kd (CBP KIX [1]; 100 μM 15N CBP KIX, 10 mM MES pH 6.5, 50 mM NaCl, 25°C, Fig. 3b, read-out: KD for the CBP KIX domain estimated by fitting concentration-dependent CSPs): > 500 µM

FSDLPWdmPL [P625dmP-switch, cis-locked switch peptide with 5,5-dimethyl L-proline at position 625]
binding of locked switch peptides to CBP KIX by pattern of CSPs (CBP KIX [1]; 100 μM 15N CBP KIX): can bind at the MLL1 site

BMAL1 TAD: recombinant mouse BMAL1 transactivation domain, residues 579–626
Kd (WT CBP KIX; 220–230 μM CBP KIX titrated into 20–25 μM BMAL1 TAD, 10 mM MES pH 6.5, 50 mM NaCl, 25°C, 3 independent runs, one-site model, read-out: KD by ITC): ~2 µM
binding by ITC (in words) [2]: disrupted
reduction of affinity by mutation of the CBP KIX c-Myb site [3]: about 100 fold

N#Cc1ccc(NC(=O)c2cc3ccccc3cc2O)cc1 [XX-650–23]
activity in cells relative to KG-501 (CREB): more active in cells
solubility [4]: poor solubility

O=C(Nc1ccc(Cl)cc1)c1cc2ccccc2cc1OP(=O)(O)O [KG-501, naphthol-AS-E-phosphate]
Activation of Per1-luc reporter after forskolin (Fsk) stimulation [5]: moderately decreased potency relative to the others
IC50 (CBP KIX [6]; 2 μM CBP KIX bound to 10 nM [5,6] TAMRA-labeled minimal BMAL1 TAD probe, 10 mM MES pH 6.5, 50 mM NaCl, 0.05% Tween-20, mean from 2 replicates done in duplicate, read-out: IC50, displacement of CBP KIX from TAD probe): 222 ± 22.5 µM
Ki (CBP KIX [6]; KD = 2 μM set for the BMAL1 TAD-CBP KIX interaction, read-out: Ki calculated from the Cheng-Prusoff equation): 111 µM

linker-switch: residues 613–626 of mouse BMAL1 (LGGPVDFSDLPWPL)
apparent affinity for CBP KIX relative to the isolated switch peptide (CBP KIX [1]; 100 μM 15N CBP KIX titrated with peptide, Fig. 3a): modestly higher apparent affinity
site of chemical shift perturbations on CBP KIX (CBP KIX [1]; peptide 100 μM, 1:1 stoichiometry with 15N CBP KIX, Fig. 2e): perturbs the MLL1 site

TAD LL/AA: recombinant BMAL1 TAD (579–626) with L606A/L607A mutation of the IXXLL motif
changes of the 15N-1H HSQC spectrum on addition of CBP TAZ1 (CBP TAZ1): almost no changes to the spectrum
binding by ITC (in words) (WT CBP KIX; same conditions as WT TAD, Fig. 4e): did not yield any binding heats
interaction with CBP TAZ2 by 15N-1H HSQC (CBP TAZ2): retained interaction
reduction of affinity for CBP KIX by mutation in the BMAL1 TAD helix (CBP KIX [7]): about 100 fold
